Reference: BindingDB's records for patent USRE49517 (Janssen Pharmaceuticals, 2023)

Biological target: Potassium voltage-gated channel subfamily H member 2 (Homo sapiens, UniProt Q12809)
Assay: Inhibition of Specific Binding to the hERG Receptor (HERGBD)
Method: Binding was terminated by filtration of the incubated membrane preparations using Filtermat B (Pharmacia, Uppsala Sweden) and a Micro Cell Harvester (Skatron, Lier, Norway). The Filtermat B had been presoaked with 1% polyethylen imine and carefully washed with 0.05 M Tris/HCl-buffer pH=7.7 after the filtration to separate free and bound radioactivity. […] The optimal amount of membrane preparation in the assay was determined and optimized for each membrane preparation separately in front of using the membranes in compound testing. […] For pipetting of the incubation mixture we routinely use the robot Biomek2000 (Fa. Beckman).

Sequence of Potassium voltage-gated channel subfamily H member 2 (Q12809 whole entry): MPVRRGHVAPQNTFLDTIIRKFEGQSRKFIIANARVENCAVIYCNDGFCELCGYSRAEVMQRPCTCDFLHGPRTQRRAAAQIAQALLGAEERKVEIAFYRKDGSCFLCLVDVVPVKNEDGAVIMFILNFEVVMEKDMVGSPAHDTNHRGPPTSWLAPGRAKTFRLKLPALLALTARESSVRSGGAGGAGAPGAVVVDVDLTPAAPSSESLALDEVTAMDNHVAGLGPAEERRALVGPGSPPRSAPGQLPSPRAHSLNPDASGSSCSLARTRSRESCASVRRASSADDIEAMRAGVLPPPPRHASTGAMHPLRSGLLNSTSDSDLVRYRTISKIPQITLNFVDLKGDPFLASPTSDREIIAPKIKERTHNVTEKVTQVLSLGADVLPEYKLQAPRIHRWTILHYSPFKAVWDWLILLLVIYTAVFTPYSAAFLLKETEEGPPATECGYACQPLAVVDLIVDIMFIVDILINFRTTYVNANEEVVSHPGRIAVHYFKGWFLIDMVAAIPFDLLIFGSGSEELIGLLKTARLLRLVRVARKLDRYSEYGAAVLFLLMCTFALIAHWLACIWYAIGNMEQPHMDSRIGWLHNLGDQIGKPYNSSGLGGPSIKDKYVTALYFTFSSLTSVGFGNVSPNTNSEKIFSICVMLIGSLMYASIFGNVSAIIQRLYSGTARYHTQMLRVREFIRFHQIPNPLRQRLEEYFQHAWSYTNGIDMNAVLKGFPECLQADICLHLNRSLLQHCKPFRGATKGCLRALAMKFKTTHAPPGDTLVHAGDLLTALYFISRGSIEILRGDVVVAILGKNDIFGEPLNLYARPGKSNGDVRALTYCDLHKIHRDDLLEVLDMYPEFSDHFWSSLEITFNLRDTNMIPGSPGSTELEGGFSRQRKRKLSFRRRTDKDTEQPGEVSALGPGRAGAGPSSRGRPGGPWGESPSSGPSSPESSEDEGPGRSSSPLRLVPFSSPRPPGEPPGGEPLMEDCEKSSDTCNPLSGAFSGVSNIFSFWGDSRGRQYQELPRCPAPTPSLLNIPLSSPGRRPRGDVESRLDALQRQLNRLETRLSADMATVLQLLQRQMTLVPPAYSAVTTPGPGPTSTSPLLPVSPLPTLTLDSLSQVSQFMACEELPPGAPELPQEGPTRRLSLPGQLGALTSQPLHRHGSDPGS

COc1cc(Cl)ccc1-c1cnn(Cc2ccn(C)n2)c1 [USRE49517, Example 67]
IC50: 63.3 µM
